Test results: patent US6374907B1, “Hydrofluoroether as a heat-transfer fluid” (3M Innovative Properties Company, priority 1999, dated 2002)

Assays:
Assay type in all cases: physicochemical
[1] = Freezing or pour point measurement; conditions: 1 ml sample cooled with liquid nitrogen; for pour point: transparent glassy solid
Method: Freezing or pour points were measured for 3 related hydrofluoroether samples:
The freeze and or pour points were measured by cooling a 1 ml sample contained in a double walled glass tube. The outer tube was sealed at both ends and had side ports for the addition of nitrogen gas. The inner tube was sealed at one end. The annular space between the tubes was purged with dry nitrogen and sealed. The sample was introduced into the inner tube and sealed with a septum. The temperature of the sample contained in the inner tube was monitored with an Omega Model DP-41 (available from Omega Engineering, Inc., Stamford, Conn.) resistance thermal device inserted into the fluid. The apparatus was lowered into the dewar flask of liquid nitrogen.
If the material froze to a white solid, a freezing point is reported. If instead the material became a transparent glassy solid, a pour point is reported.
The resistance thermal device was not calibrated at temperatures less than −100° C.

[2] = Thermal conductivity, transient hot-wire cell (ASTM D 2717-86); conditions: value used in place of n-C3F7CF(OC2H5)CF(CF3)2
Method: The thermal conductivity of n-C3F7CF(OC2H5)CF(CF3)2 was not measured. Instead, experimentally-determined values for the hydrofluoroether C4F9OC2H5 were used. These values were determined using a transient, hot-wire thermal conductivity cell over the temperature range of −50° C. to +50° C., according to ASTM D 2717-86. A platinum wire was used in the measurements. […] The thermal conductivity at 25° C. was 0.066 W/m° C.

[3] = Physical properties of the fluids (boiling point, gel temperature, pour point); conditions: for boiling point: ambient / atmospheric pressure
Source text: The pumping power calculation was made for various fluorinated fluids and is presented in TABLE 5, along with various physical properties of the fluids.

[4] = Specific heat by differential scanning calorimetry (ASTM E 1269-90)
Method: The specific heat of n-C3F7CF(OC2H5)CF(CF3)2 was measured by differential scanning calorimetry according to ASTME 1269-90 over a temperature range of −50° C. to 50° C.

[5] = Liquid density, Anton-Parr densitometer
Method: The liquid density of n-C3F7CF(OC2H5)CF(CF3)2 was measured from 10° C. to 90° C. using an Anton-Parr Model DMA58 densitometer with a DMA602 external cell. Densities below this temperature were obtained by linear extrapolation of the available data.

[6] = Kinematic viscosity, Cannon-Fenske viscometer
Method: The kinematic viscosity of n-C3F7CF(OC2H5)CF(CF3)2 was measured using a Cannon-Fenske viscometer over the temperature range −80° C. to 23° C. Data were regressed using methods outlined in ASTM Standard D 341-77.

[7] = Distillation curve, head temperature vs. percent boiled; conditions: until over 95% of the fluid had boiled over
Method: H-GALDEN™ ZT-130 fluid (199 grams) was distilled from a 250 mL boiling flask using a 12 inch (30 cm) downward slanting shell-in-tube condenser into another 250 mL receiver flask. The weight of the fluid captured by the receiver was continuously monitored using an Ohaus Model TP4000D digital balance (available from Ohaus Corp., Florham Park, N.J.). The head temperature of the distillation apparatus was monitored using a type-J thermocouple. Both weight and temperature measurements were recorded using a LABVIEW SCXI automated data acquisition system (available from National Instruments Corp., Austin, Tex.) at regular intervals during the course of the distillation, which took 20.9 minutes.
The same experiment was repeated except that 211.9 g of n-C3F7CF(OC2H5)CF(CF3)2 was used in place of the H-GALDEN™ ZT-130 fluid and the distillation took place over an 11.5 minute time interval.
Thus, better temperature and viscosity control is possible when the n-C3F7CF(OC2H5)CF(CF3)2 is employed as a wide temperature range heat-transfer fluid.

| Molecule | pour point [1] | Gel temp [3] | Initial Boiling point [3] | boiling point [3] | further results |
| --- | --- | --- | --- | --- | --- |
| CCOC(F)(C(F)(F)C(F)(F)C(F)(F)C(F)(F)F)C(F)(C(F)(F)F)C(F)(F)F (stereo not drawn) [n-C4F9CF(OC2H5)CF(CF3)2] | −83 °C | – | – | – | – |
| C4F9OC2H5 | – | – | – | – | thermal conductivity at 25° C. [2]: 0.066 W/m° C. |
| FC(F)(F)C(F)(F)C(F)(F)N(C(F)(F)C(F)(F)C(F)(F)F)C(F)(F)C(F)(F)C(F)(F)F [FC-3283, perfluoro(tripropylamine)] | – | −50 °C | 130 °C | about 130 °C | pour point [3]: −50 °C |
| CCOC(F)(C(F)(F)C(F)(F)C(F)(F)F)C(F)(C(F)(F)F)C(F)(F)F (stereo not drawn) [n-C3F7CF(OC2H5)CF(CF3)2, 3-ethoxy-perfluoro(2-methylhexane)] | less than −100 °C | −100 °C | 128 °C | 128 °C | Specific Heat at 25° C. [4]: 1128 J/kg° C.; Liquid Density at 25° C. [5]: 1614 kg/m^3; Kinematic Viscosity at 25° C. [6]: 0.77 centistokes; change of boiling point during distillation [7]: remained unchanged |
| CCOC(F)(C(F)(F)C(F)(F)F)C(F)(C(F)(F)F)C(F)(F)F (stereo not drawn) [n-C2F5CF(OC2H5)CF(CF3)2] | – | – | – | – | freeze point ([1]; froze to a white solid): −70 °C |
